In patent US20250387409A1, “3-BETA-HYDROXY-3-ALPHA-ETHYL STEROIDS FOR MODULATION OF THE ALPHA-3 SUBTYPE OF THE GABAA RECEPTOR” (priority 2021, published 2025):

What was measured:
[1] = target: T1, human α3-β3-γ2L GABAA-receptor subtype (Homo sapiens, UniProt P28472+P34903); assay: Patch clamp (Dynaflow) GABA-mediated current response, HEK-293 cells, α3β3γ2L; type: cell-based; details: for effect on GABA (in words) / effect on GABA response: 1 μM steroid; for activation of the receptor in the absence of GABA / Imax on 100 μM GABA mediated current response: 0.01-10 μM steroid; for activation of the receptor in the absence of GABA: no GABA, data not shown; for Imax on 100 μM GABA mediated current response: from best fit curve
T1 construct: expressed in transfected cells
Excerpt: (§1) In these tests the protocol was optimized to be like the physiological conditions in the synaptic cleft.
(§2) Preparation of cell lines: HEK-293 cells permanently transfected with the human α1-β2-γ2L, α2-β3-γ2S, α3-ββ3-γ2L, α4-β3-δ or α5-β3-γ2L GABAA-receptor subtypes were used. The cell lines permanently expressing a functional human GABAA-receptor was made in following steps. The human GABAA-receptor subunits e.g. α1 (308-1727 NM_000806), β2 (214-1679 NM_000813), γ2L (290-1785 NM_198904), α2, β3, γ2S, α3, α4, δ and α5 including introduced Kozac sequences just before the start codons were subcloned into mammalian expression vectors containing Geneticin, Hygromycin B, and Zeocin resistance, respectively. A HEK-293 cell line stably expressing the three GABAA-receptor subunits was produced by transfection of the subunits, one at a time. The transfection was followed by selection with the appropriate antibiotics, cell separation with the use of subunit specific antibodies and production of single cell colonies. Produced cell lines were analysed with immunocytochemistry for the three GABAA-receptor subunits, followed by selection of a suitable cell line showing, for the GABAA-receptor normal and good reactivity in a patch-clamp analysis (see below) towards GABA and the GAMS THDOC.
(§3) Cell culture: HEK-293 cells, permanently transfected with human α1-β2-γ2L, α2-β3-γ2S, α3-β3-γ2L, α4-β3-δ and α5-β3-γ2L GABAA-receptor subtypes, were seeded at a density of 3×10^4/25 cm^2 in cell binding culture flask. The transfected cells were used for patch-clamp experiments 3 days after seeding. When using the cells for patch-clamp experiments the cells were washed twice with oxygen-bubbled EC-solution (see below). About 5 mL EC was then added and the cells were kept in the incubator for about 15 minutes. After 15 minutes the cells came loose from the bottom of the flask and were separated by carefully sucking couple of times with a Pasteur pipette.
(§4) Dynaflow™ system: Dynaflow™ system with resolve chips was used for all patch-clamp experiments. The resolve chips is made of non-sticky materials. The channel width is 150 μm and the height 50 μm. The well volume is 280 μL. Run time at the flow rate of 26 μL/min is […]. The pump settings were as follow: Omnifix 2 ml syringe with inner diameter of 9.65 mm was used. The syringe pump flow rate of chip was 26 μL/min.
(§5) Steroids and GABA: GABA was dissolved in EC-solution by ultrasound for about 40 minutes to the concentration of 10 mM in room temperature. All steroids were dissolved to the concentration of 6 mM in dimethyl sulfoxide (DMSO). The DMSO concentration was 0.1% in all end-solutions, including the wash solution (EC) and the solution with GABA alone. End-solutions are the solutions added into the wells of the chip.
(§6) Electrophysiology: Patch electrodes were pulled from 1.5 mm O.D., 0.86 mm I.D. borosilicate capillary glass without filament. […] The intracellular solution (IC) comprised of (in mM): 140 Cs-gluconate, 3.0 NaCl, 1.2 MgCl2, 1.0 EGTA, 10 HEPES. pH was adjusted to 7.2 with CsOH. The extracellular (EC) solution used during recordings contained (in mM): 137 NaCl, 5.0 KCl, 1.0 CaCl2), 1.2 MgCl2, 10 HEPES, 10 glucose. pH was adjusted with NaOH to 7.4. After compensating for the liquid junction potential, a steady holding potential of −17 mV was used in all experiments. In physiological conditions the HEK-293 has a resting potential at −40 mV and a low concentration of chloride ions inside the cell. By using the holding potential of-17 mV and the intracellular solution with low chloride ion concentration the chloride ions flux into the cell when the receptors are activated. All experiments were performed at room temperature (21 to 23° C.). The following standard protocol was used for all experiments.
(§7) GABA applications: By using the Dynaflow equipment it is possible to study transfected HEK-293 during almost physiological conditions.

[2] = target: T2, human α5-β3-γ2L GABAA-receptor subtype (Homo sapiens, UniProt P28472+P31644); assay: Patch clamp (Dynaflow) GABA-mediated current response, HEK-293 cells, α5β3γ2L; type: cell-based; details: 1 μM steroid
T2 construct: expressed in transfected cells
Excerpt: as §1, §2, §3, §4
as §5, with “chip. […]” for “chip.”

[3] = target: T3, human α2-β3-γ2S GABAA-receptor subtype (Homo sapiens, UniProt P28472+P47869); assay: Patch clamp (Dynaflow) GABA-mediated current response, HEK-293 cells, α2β3γ2S; type: cell-based; details: 1 μM steroid
T3 construct: expressed in transfected cells
Excerpt: as §1, §2, §3, §4
as §5, with “chip. […]” for “chip.”

[4] = target: T4, human GABAA-receptor subtype α3β3γ2L (Homo sapiens, UniProt P28472+P34903); assay: Patch clamp (Dynaflow) THDOC enhancement of GABA response, HEK-293 cells, α3β3γ2L; type: cell-based; details: for reduction of THDOC-enhanced GABA effect, Mean ± SEM %: 100 nM THDOC, 100 μM GABA, GABA response subtracted
T4 construct: expressed in transfected cells
Excerpt: as §1, §2, §3, §4, §5, §6, §7

GABAA-receptors = assay: Patch clamp, steroid alone without GABA present; type: cell-based, human
Excerpt: as §1
as §2, with “THDOC. […]” for “THDOC.”

[5] = target: T5, human α4-β3-δ GABAA-receptor subtype (Homo sapiens, UniProt P28472+P48169); assay: Patch clamp (Dynaflow) GABA-mediated current response, HEK-293 cells, α4β3δ; type: cell-based; details: 1 μM steroid
T5 construct: expressed in transfected cells
Excerpt: as §1, §2, §3, §4
as §5, with “chip. […]” for “chip.”

[6] = target: T6, human α1-β2-γ2L GABAA-receptor subtype (Homo sapiens, UniProt P14867+P47870); assay: Patch clamp (Dynaflow) GABA-mediated current response, HEK-293 cells, α1β2γ2L; type: cell-based; details: 1 μM steroid, α1β2γ2L; for effect on GABA response: mean ± SEM, + enhancement, − reduction
T6 construct: expressed in transfected cells
Excerpt: as §1, §2, §3, §4, §5
as §6, with “By using the holding potential of-17 mV and the intracellular solution with low chloride ion concentration the chloride ions flux into the cell when the receptors are activated. All experiments were performed at room temperature (21 to 23° C.). The following standard protocol was used for all experiments.” left out

T5 sequence (P48169 36-554): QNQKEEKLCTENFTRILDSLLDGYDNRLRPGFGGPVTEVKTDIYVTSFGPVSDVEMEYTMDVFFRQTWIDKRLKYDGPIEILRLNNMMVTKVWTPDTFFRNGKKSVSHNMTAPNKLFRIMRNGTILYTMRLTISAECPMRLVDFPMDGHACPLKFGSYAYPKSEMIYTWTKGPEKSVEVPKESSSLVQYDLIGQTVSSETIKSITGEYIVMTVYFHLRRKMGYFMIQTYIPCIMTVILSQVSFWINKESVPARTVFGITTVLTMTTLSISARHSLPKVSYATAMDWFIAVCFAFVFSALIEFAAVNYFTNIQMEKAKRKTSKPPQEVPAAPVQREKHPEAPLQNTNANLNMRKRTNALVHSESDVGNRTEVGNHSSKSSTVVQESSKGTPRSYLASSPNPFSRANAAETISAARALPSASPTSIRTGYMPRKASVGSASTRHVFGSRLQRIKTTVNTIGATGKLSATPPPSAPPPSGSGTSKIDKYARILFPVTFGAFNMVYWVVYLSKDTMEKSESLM
T5 sequence (P28472 26-473): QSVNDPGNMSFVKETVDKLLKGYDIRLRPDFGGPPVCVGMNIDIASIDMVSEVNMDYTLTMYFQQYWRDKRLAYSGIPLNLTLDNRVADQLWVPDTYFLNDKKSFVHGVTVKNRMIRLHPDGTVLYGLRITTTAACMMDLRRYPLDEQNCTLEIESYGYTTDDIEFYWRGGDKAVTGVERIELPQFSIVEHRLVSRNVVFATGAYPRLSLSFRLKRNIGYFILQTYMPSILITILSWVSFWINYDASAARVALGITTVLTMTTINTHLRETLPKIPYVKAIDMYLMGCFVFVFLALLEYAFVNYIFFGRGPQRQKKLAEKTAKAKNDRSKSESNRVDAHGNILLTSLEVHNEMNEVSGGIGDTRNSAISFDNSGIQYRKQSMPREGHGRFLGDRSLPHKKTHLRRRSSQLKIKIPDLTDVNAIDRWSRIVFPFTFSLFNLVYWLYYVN
T5 sequence (O14764 25-452 partner): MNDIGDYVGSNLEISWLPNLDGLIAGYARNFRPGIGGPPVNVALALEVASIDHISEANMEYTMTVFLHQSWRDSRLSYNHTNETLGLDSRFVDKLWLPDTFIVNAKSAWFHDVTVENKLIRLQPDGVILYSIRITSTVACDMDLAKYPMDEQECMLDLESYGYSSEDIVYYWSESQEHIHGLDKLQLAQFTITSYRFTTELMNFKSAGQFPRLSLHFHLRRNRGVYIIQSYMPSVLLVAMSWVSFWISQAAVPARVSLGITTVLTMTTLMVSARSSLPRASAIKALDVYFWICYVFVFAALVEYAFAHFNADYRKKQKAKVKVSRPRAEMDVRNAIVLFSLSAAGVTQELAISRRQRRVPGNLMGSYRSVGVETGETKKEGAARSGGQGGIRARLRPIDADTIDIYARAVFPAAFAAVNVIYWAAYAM
T1 sequence (P34903 29-492): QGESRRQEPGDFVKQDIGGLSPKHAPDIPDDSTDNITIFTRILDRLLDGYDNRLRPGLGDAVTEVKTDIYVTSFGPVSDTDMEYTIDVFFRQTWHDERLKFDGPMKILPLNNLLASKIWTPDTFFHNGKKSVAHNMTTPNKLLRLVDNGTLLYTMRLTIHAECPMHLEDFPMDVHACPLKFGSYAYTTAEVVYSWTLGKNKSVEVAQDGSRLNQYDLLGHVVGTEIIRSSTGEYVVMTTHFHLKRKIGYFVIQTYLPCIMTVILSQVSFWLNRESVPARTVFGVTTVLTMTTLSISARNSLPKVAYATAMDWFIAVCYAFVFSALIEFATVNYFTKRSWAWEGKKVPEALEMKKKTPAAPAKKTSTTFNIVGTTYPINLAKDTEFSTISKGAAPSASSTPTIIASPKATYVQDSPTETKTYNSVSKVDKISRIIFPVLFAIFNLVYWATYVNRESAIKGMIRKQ
T1 sequence (P28472 26-473): as the sequence (P28472 26-473) above
T1 sequence (P18507 40-475 partner): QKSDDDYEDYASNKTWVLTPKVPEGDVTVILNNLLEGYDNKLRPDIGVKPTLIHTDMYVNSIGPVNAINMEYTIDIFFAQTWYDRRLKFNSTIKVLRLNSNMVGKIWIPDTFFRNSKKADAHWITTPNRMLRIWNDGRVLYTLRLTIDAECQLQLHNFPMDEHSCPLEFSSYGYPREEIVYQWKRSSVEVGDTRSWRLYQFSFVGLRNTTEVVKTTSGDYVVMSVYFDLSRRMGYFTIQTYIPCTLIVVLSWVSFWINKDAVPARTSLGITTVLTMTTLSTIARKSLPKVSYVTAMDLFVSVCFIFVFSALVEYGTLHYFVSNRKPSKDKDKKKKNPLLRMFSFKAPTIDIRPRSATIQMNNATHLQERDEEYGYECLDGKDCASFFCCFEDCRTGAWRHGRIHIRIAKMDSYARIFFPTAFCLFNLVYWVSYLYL
T4 sequence (P34903 29-492): as the sequence (P34903 29-492) above
T4 sequence (P28472 26-473): as the sequence (P28472 26-473) above
T4 sequence (P18507 40-475 partner): as the sequence (P18507 40-475 partner) above
T2 sequence (P31644 32-462): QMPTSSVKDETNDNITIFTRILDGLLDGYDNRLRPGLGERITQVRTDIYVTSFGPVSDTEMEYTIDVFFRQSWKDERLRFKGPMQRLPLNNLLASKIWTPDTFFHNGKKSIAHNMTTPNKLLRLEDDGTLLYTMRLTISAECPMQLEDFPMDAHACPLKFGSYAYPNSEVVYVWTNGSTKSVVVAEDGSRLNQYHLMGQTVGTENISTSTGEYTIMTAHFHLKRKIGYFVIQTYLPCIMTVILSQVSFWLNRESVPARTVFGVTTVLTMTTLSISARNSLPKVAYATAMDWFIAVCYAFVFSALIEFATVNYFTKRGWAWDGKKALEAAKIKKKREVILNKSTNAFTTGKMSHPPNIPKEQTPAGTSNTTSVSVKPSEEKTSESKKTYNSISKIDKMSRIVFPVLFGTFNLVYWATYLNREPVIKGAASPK
T2 sequence (P28472 26-473): as the sequence (P28472 26-473) above
T2 sequence (P18507 40-475 partner): as the sequence (P18507 40-475 partner) above
T3 sequence (P47869 29-451): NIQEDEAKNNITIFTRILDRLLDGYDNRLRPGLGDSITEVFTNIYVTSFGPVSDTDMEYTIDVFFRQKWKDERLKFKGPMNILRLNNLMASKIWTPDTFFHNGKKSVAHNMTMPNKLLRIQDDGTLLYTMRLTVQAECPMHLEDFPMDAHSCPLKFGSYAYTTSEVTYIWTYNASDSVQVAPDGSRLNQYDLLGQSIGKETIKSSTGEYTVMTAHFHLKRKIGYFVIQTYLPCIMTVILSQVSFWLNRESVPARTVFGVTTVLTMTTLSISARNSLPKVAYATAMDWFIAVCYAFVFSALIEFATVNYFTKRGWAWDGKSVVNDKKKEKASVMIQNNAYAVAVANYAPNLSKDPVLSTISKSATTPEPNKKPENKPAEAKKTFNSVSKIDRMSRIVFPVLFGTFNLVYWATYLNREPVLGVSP
T3 sequence (P28472 26-473): as the sequence (P28472 26-473) above
T3 sequence (P18507 40-467 isoform P18507-1 partner limits assumed): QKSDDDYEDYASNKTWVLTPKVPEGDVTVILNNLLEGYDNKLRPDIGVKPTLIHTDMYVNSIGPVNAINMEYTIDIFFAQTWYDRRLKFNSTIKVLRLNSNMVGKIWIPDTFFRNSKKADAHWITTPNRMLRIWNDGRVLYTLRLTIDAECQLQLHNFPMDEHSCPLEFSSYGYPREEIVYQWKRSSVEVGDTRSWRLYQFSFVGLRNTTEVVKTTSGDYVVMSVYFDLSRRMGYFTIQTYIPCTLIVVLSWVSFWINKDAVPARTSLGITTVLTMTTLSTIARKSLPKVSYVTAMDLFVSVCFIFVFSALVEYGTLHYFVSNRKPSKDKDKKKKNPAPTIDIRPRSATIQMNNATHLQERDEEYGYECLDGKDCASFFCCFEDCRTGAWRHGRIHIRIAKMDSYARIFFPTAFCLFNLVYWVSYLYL
T6 sequence (P14867 28-456): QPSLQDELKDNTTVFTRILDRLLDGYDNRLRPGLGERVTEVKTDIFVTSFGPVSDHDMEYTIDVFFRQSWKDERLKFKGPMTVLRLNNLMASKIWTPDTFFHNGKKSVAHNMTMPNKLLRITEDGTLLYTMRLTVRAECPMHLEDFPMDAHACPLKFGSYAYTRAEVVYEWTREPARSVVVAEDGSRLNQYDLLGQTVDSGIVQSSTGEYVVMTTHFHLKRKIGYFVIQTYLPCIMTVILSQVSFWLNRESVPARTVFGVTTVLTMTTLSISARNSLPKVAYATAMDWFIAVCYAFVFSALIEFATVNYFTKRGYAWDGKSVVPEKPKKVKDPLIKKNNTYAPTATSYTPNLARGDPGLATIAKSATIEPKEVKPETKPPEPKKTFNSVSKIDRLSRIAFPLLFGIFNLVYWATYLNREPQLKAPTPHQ
T6 sequence (P47870 26-474 isoform P47870-1 limits assumed): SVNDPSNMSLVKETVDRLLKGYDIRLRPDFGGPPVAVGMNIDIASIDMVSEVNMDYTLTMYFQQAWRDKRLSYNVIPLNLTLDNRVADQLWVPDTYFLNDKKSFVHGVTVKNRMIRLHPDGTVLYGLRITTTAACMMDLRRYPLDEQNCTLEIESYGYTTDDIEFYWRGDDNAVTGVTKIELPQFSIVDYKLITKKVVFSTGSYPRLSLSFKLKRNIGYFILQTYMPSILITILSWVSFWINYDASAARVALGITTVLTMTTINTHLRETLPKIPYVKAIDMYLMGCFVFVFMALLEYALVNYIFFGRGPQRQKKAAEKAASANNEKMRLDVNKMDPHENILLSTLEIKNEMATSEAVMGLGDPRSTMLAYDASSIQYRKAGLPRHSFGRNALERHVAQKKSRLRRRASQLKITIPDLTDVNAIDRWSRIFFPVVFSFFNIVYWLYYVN
T6 sequence (P18507 40-475 partner): as the sequence (P18507 40-475 partner) above

| SMILES | IC50 [1] [µM] | effect on GABA (in words) ([1]; α3β3γ2L) | effect on GABA response ([1]; α3β3γ2L) [%] | activation of the receptor in the absence of GABA [1] | Imax on 100 μM GABA mediated current response ([1]; α3β3γ2L) [%] | effect on 100 μM GABA response, Mean ± SEM % ([1]; steroid conc. 0.01 μM, α3β3γ2L) | effect on 100 μM GABA response, Mean ± SEM % ([1]; steroid conc. 0.03 μM, α3β3γ2L) | effect on 100 μM GABA response, Mean ± SEM % ([1]; steroid conc. 0.1 μM, α3β3γ2L) | effect on 100 μM GABA response, Mean ± SEM % ([1]; steroid conc. 0.3 μM, α3β3γ2L) | effect on 100 μM GABA response, Mean ± SEM % ([1]; steroid conc. 1 μM, α3β3γ2L) [%] | effect on 100 μM GABA response, Mean ± SEM % ([1]; steroid conc. 3 μM, α3β3γ2L) [%] | effect on 100 μM GABA response, Mean ± SEM % ([1]; steroid conc. 10 μM, α3β3γ2L) [%] | effect on GABA (in words) [2] | effect on GABA response [2] | effect on GABA (in words) [3] | effect on GABA response [3] | reduction of THDOC-enhanced GABA effect, Mean ± SEM % ([4]; steroid conc. 0.03 μM) | reduction of THDOC-enhanced GABA effect, Mean ± SEM % ([4]; steroid conc. 0.1 μM) [%] | reduction of THDOC-enhanced GABA effect, Mean ± SEM % ([4]; steroid conc. 0.3 μM) [%] | reduction of THDOC-enhanced GABA effect, Mean ± SEM % ([4]; steroid conc. 1 μM) [%] | also measured |
| --- | --- | --- | --- | --- | --- | --- | --- | --- | --- | --- | --- | --- | --- | --- | --- | --- | --- | --- | --- | --- | --- |
| CC[C@]1(O)CC[C@@]2(C)[C@@H](CC[C@@H]3[C@@H]2CC[C@]2(C)C(=O)CC[C@@H]32)C1 [3α-ethyl-3β-hydroxy-5α-androstan-17-one] | 0.9 | significant antagonistic effect | −38 ± 2.4 | did activate the receptor in the absence of GABA | −77 | +6.6 ± 2.2% | −1.6 ± 0.7% | +4.4 ± 3.0% | −11 ± 0.7% | −39 ± 3.1 | −67 ± 3.0 | −75 ± 3.0 | significant antagonistic effect | −38 ± 2.0% | significant antagonistic effect | −29 ± 1.3% | −4.4 ± 8.5% | −35 ± 8.8 | −72 ± 8.3 | −120 ± 5.6 | significant reducing effect on 100 μM GABA response ([1]; at 0.3 μM, α3β3γ2L): more than 10%; concentration at which antagonistic effect against GABAs effect is seen ([1]; α3β3γ2L): ≥ 0.3 µM; reduction of THDOC-enhanced GABA effect, Mean ± SEM % ([4]; steroid conc. 3 μM): −202 ± 13%; concentration at which antagonistic effect on THDOC enhancement of GABA is seen ([4]; α3β3γ2L): ≥ 0.1 µM; effect on the GABAA-receptors alone without GABA present (GABAA-receptors): no effect; effect on GABA (in words) [5]: significant antagonistic effect; effect on GABA response [5]: −12 ± 2.3%; effect on GABA (in words) [6]: significant antagonistic effect; effect on GABA response [6]: −9.3 ± 1.3% |
| CC[C@]1(O)CC[C@@]2(C)[C@@H](CC[C@@H]3[C@@H]2CC[C@]2(C)[C@@H](C(C)=O)CC[C@@H]32)C1 [3α-ethyl-3β-hydroxy-5α-pregnan-20-one] | 1.7 | antagonizing effect | −8.5 ± 1.9 | did activate the receptor in the absence of GABA | −47 | +3.7 ± 2.4% | +9.1 ± 4.4% | +1.2 ± 4.2% | +15 ± 4.7% | −8.1 ± 2.7 | −32 ± 4.0 | −46 ± 6.8 | no significant antagonistic or agonistic effect | +3.2 ± 2.6% | no significant antagonistic or agonistic effect | +0.6 ± 2.3% | +19 ± 7.4% | −7.7 ± 12 | −34 ± 6.7 | −78 ± 8.8 | significant reducing effect on 100 μM GABA response ([1]; at 3 μM, α3β3γ2L): more than 30%; IC50 [4]: 0.4 µM; block of the THDOC enhancement ([4]; 3 μM steroid): completely block the THDOC enhancement; effect on THDOC's autonomic opening of the α3β3γ2L GABAA-receptor ([4]; in the range of the vehicle): slight agonistic effect; reduction of THDOC-enhanced GABA effect, Mean ± SEM % ([4]; steroid conc. 3 μM): −141 ± 15%; concentrations at which antagonist against THDOC enhancement of GABA ([4]; α3β3γ2L): above 300 nM; effect on the GABAA-receptors alone without GABA present (GABAA-receptors): no effect; effect on GABA (in words) [5]: no significant antagonistic or agonistic effect; effect on GABA response [5]: +6.5 ± 2.5%; effect on GABA (in words) [6]: agonistic enhancing effect; effect on GABA response [6]: +6.0 ± 2.0% |
